# What was measured:
# ATX = details: at 10 μM, substrate FS-3; cited from earlier work
# [1] = Mouse pharmacokinetics, plasma BrP-LPA by HPLC-MS/MS; assay type: in vivo; details: 10 mg/kg i.p.
# Protocol: BrP-LPA, LPA species (C14:0, C16:0, C18:0, C18:1 and C20:4) and LPC species (C14:0, C16:0, C18:0, C18:1 and C20:0) were measured in plasma with HPLC-ESI/MS/MS using RSLCnano system (Ultimate 3000) coupled in-line with an LTQ Orbitrap XL mass spectrometer (Thermo Scientific, Waltham, MA, USA). BrP-LPA and lipid (LPA, LPC) extraction from plasma was performed on ice according to the Folch method with minor modifications. Plasma samples (50 ul) were mixed with 950 ul PBS prior to extraction and spiked with the internal standard mix (17:1 LPA/LPC). Samples were extracted under neutral conditions with 4 ml of ice-cold CHCl3/CH3OH (2/1, v/v) followed by 2 ml of PBS-saturated ice-cold CHCl3/CH3OH (2/1, v/v). Each extraction step was followed by a 60 s vortex and a 1 min centrifugation step in a bench-top clinical centrifuge in a cold room at 4°C at 3,000 rpm. The lower chloroform organic phases from both neutral extraction steps were pooled and kept for LPC measurement. The remained aqueous phase was chilled on ice for 10 min and extracted twice with ice-cold acidified with acetic acid CHCl3/CH3OH (2/1, v/v) as above. The lower organic phases were pooled, neutralized to pH 6–7 (checked with pH paper as above) on ice and kept for LPA, BrP-LPA measurements. The kept neutral lower organic phase of neutral extraction and the neutralized acidified lower organic phase were evaporated to dryness. The resulting residues were resuspended in 0.15 ml of isopropanol and after brief vortex mixing the solution was transferred to the auto sampler vial. Recovery of LPA species was between 60% and 95%. Recovery of BrP-LPA was 70% and the recovery of LPC species was between 80% and 100%. […] The precursor ion mass was used for the quantification while lipid identity was confirmed by precursor ion fragmentation using collision induced dissociation (CID). […]
# BrP-LPA was administered intraperitoneally (IP) at 10 mg/kg in water to 6–8 week old female mice. […] Plasma samples were then analysed for plasma ATX activity and BrP-LPA/LPA/LPC levels with the TOOS activity assay and HPLC-MS/MS respectively. […]
smiles,measurement,setting,value
"CCCCCCCCCCCCCCCC(=O)OC[C@@H](O)CC(Br)P(=O)(O)O (stereo partly drawn) [BrP-LPA, 1-bromo-3(S)-hydroxy-4-(palmitoyloxy)butyl-phosphonate]",inhibition of lysophospholipase D activity of ATX,ATX,94%
same,Cmin,[1]; at 16 h,0.15 µM
same,Cmax,[1]; female mice,8 µM
same,t1/2,[1]; female mice,50 min
